# According to US20220177947A1, “Compounds to Identify Beta-Lactamases, and Methods of Use Thereof” (priority 2019, published 2022):
# Like-named read-outs stand apart in the source and are kept apart here.
# Experiments:
# [1] = tested on: Enterobacteriaceae isolates; format: cell-based; settings: for resistance in the isolates (in words): all Enterobacteriaceae isolates, excluding intrinsic resistance
# Experimental: Urine culture, organism identification, AST, and ESBL confirmatory testing. Standard microbiological procedures were performed by the clinical laboratory as part of routine care for all urine samples used in this study, per the clinical laboratory's standard operating procedures. First, 1 μL or 10 μL of urine sample was plated on standard agar plates (blood agar and eosin methylene blue agar biplate), then visually inspected the next day for significant growth indicative of a UTI (≥10^4 CFU/mL cutoff applied). The MiscroScan WalkAway system (Beckman Coulter) was utilized for bacterial identification and AST of GNB and select GPB causing UTI. […] AST interpretations were based on CLSI's 2017 guidelines.
# TEM-1 [2] = biological target: T1, TEM-1 (Escherichia coli, UniProt P62593); settings: cited from earlier work
# T1 sequence (P62593 24-286 limits assumed): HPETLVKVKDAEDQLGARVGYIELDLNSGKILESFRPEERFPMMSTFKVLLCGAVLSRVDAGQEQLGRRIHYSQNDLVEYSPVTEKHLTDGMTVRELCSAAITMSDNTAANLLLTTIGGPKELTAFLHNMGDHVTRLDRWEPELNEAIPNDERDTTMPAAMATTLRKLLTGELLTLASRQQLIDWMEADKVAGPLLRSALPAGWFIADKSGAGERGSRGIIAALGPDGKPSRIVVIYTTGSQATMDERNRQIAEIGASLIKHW
# SHV-1 [3] = biological target: T2, SHV-1 (Klebsiella pneumoniae, UniProt P0AD64); settings: cited from earlier work
# T2 sequence (P0AD64 22-286): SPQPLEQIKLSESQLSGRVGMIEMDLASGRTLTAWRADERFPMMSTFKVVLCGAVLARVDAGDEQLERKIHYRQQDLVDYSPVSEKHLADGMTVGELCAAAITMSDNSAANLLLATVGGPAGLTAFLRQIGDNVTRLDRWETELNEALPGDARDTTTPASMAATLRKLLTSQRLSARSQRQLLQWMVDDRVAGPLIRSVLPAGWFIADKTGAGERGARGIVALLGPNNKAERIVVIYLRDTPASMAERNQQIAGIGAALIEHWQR
# [4] = tested on: E. coli clinical isolates; assay: DETECT with β-lactamase inhibitors (clavulanic acid); format: cell-based; settings: original score/inhibitor score, 30 min
# Experimental: (§1) A solution of sodium clavulanate was prepared to 1 mg/400 μL in “buffer 1”, and 4 μL of this solution was added to both the sample and control well for each isolate tested, two min prior to addition of β-lactamase probe or acetonitrile to the sample and control well, respectively. […]
# [5] = tested on: K. pneumoniae clinical isolates; assay: as above; format: cell-based; settings: original score/inhibitor score, 30 min
# Experimental: as §1
# S. aureus PC1 = S. aureus PC1 (Staphylococcus aureus, UniProt P00807); settings: cited from earlier work
# S. aureus PC1, sequence (P00807 25-281): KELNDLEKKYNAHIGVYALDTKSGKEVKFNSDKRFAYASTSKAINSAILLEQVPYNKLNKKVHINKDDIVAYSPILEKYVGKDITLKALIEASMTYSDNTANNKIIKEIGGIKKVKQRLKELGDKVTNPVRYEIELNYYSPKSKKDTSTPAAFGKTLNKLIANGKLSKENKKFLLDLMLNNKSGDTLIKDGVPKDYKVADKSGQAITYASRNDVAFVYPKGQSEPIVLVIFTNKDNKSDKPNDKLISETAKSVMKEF
# B. cereus I = B. cereus I (Bacillus cereus, UniProt P00809); settings: cited from earlier work
# B. cereus I, sequence (P00809 28-306): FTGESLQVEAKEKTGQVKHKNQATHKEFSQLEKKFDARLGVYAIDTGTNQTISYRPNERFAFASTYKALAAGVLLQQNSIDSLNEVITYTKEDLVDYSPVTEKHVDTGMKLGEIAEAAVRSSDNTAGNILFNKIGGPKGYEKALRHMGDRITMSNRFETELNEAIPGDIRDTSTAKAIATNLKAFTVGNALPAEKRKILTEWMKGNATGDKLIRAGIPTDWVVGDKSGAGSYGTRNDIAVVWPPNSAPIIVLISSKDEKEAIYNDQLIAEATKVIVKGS
# TEM-1 [6] = biological target: T1, TEM-1; settings: cited from earlier work; remark: listed apart in the source
# SHV-1 [7] = biological target: T2, SHV-1; settings: cited from earlier work; remark: listed apart in the source
molecule,measurement,setting,value
CN(C)c1cc(NC(=O)CNC(C)(C)C)c(O)c2c1C[C@H]1C[C@H]3[C@H](N(C)C)C(O)=C(C(N)=O)C(=O)[C@@]3(O)C(O)=C1C2=O [tigecycline],resistance in the isolates (in words),[1],no tigecycline-resistant isolates were identified
CC1(C)[C@H](C(=O)O)N2C(=O)C[C@H]2S1(=O)=O [sulbactam],"turnover number (tn), inhibitor molecules to inactivate one β-lactamase enzyme",TEM-1 [2],"10,000"
same,"turnover number (tn), inhibitor molecules to inactivate one β-lactamase enzyme",SHV-1 [3],"13,000"
O=C(O)[C@H]1/C(=C/CO)O[C@@H]2CC(=O)N21 [clavulanic acid],"Times-change in DETECT score, with clavulanic acid","[4]; isolate CDC-081: CMY-2, TEM-1B",1.6
same,"Times-change in DETECT score, with clavulanic acid",[4]; isolate CDC-085: CMY-2,1.3
same,"Times-change in DETECT score, with clavulanic acid","[4]; isolate CDC-086: CTX-M-14, TEM-1B",10.7
same,"Times-change in DETECT score, with clavulanic acid",[4]; isolate CDC-089: CMY-2,1.6
same,"Times-change in DETECT score, with clavulanic acid",[4]; isolate D14: CTX-M-15,5.4
same,"Times-change in DETECT score, with clavulanic acid","[4]; isolate D129: CTX-M-2, TEM, SHV",14.2
same,"Times-change in DETECT score, with clavulanic acid",[4]; isolate D270: CTX-M-17,12.9
same,"Times-change in DETECT score, with clavulanic acid",[4]; isolate D304: CTX-M-55/57,9.9
same,"Times-change in DETECT score, with clavulanic acid",[4]; isolate D333: CTX-M-14/17/18,10.3
same,"Times-change in DETECT score, with clavulanic acid",[4]; isolate D362: CTX-M-15,4.9
same,"Times-change in DETECT score, with clavulanic acid",[4]; isolate D497: CTX-M-15,3.2
same,"Times-change in DETECT score, with clavulanic acid","[4]; isolate D500: CTX-M-27, CMY-2/130",1.7
same,"Times-change in DETECT score, with clavulanic acid",[4]; isolate SF141: CMY-2,1.5
same,"Times-change in DETECT score, with clavulanic acid",[4]; isolate SF148: CTX-M-14,16.8
same,"Times-change in DETECT score, with clavulanic acid",[4]; isolate SF207: CMY-2,1.2
same,"Times-change in DETECT score, with clavulanic acid","[4]; isolate SF325: CTX-M-14/17/18, OXA",5.7
same,"Times-change in DETECT score, with clavulanic acid",[4]; isolate SF410: CTX-M-15,4.8
same,"Times-change in DETECT score, with clavulanic acid","[4]; isolate SF468: CTX-M-14, TEM-1",15.5
same,"Times-change in DETECT score, with clavulanic acid",[4]; isolate SF473: CTX-M-14/17/18,13.0
same,"Times-change in DETECT score, with clavulanic acid",[4]; isolate SF487: CTX-M-14,9.9
same,"Times-change in DETECT score, with clavulanic acid",[4]; isolate SF674: CTX-M-15,5.8
same,"Times-change in DETECT score, with clavulanic acid","[5]; isolate B7: KPC-2, CTX-M-15, TEM-1B, SHV-11",2.3
same,"Times-change in DETECT score, with clavulanic acid","[5]; isolate B14: KPC-2, CTX-M-9, TEM-1A, SHV-11",2.4
same,"Times-change in DETECT score, with clavulanic acid","[5]; isolate B23: KPC-2, CTX-M-15, TEM-1B, SHV-11, OXA-1",4.4
same,"Times-change in DETECT score, with clavulanic acid","[5]; isolate FB13: CTX-M-15, CTX-M-8, TEM-1A, SHV-25/121, OXA-1",15.3
same,"Times-change in DETECT score, with clavulanic acid","[5]; isolate FB90: CTX-M-15, CTX-M-8, TEM-1A, SHV-25/121, OXA-1",14.2
same,"Times-change in DETECT score, with clavulanic acid","[5]; isolate HAF66: CTX-M-8, TEM-1, SHV-85",10.5
same,"Times-change in DETECT score, with clavulanic acid","[5]; isolate HAF102: CTX-M-8, TEM-1, SHV-76",8.2
same,"Times-change in DETECT score, with clavulanic acid","[5]; isolate HCD309: CTX-M-8, TEM-1, SHV-1",5.9
same,"Times-change in DETECT score, with clavulanic acid","[5]; isolate HCD405: CTX-M-15, SHV-25/121, OXA-1",17.6
same,"Times-change in DETECT score, with clavulanic acid","[5]; isolate HON257: CTX-M-2, TEM-15, SHV-25/121",23.0
same,"Times-change in DETECT score, with clavulanic acid","[5]; isolate SF681: CTX-M-15, TEM-1B, SHV-11, OXA-1",3.8
same,"turnover number (tn), inhibitor molecules to inactivate one β-lactamase enzyme",S. aureus PC1,one
same,"turnover number (tn), inhibitor molecules to inactivate one β-lactamase enzyme",TEM-1 [2],160
same,"turnover number (tn), inhibitor molecules to inactivate one β-lactamase enzyme",SHV-1 [3],60
same,"turnover number (tn), inhibitor molecules to inactivate one β-lactamase enzyme",B. cereus I,"more than 16,000"
same,IC50 fold lower than that for sulbactam,TEM-1 [6],60 fold
same,IC50 fold lower than that for sulbactam,SHV-1 [7],580 fold
CO[C@@]1(NC(=O)Cc2cccs2)C(=O)N2C(C(=O)O)=C(COC(N)=O)CS[C@@H]21 [cefoxitin],resistance in the isolates (in words),[1],rare
gentamicin,"resistance identified, number of isolates",[1]; CTX-M-producing bacteria,5
same,"resistance identified, percent of isolates",[1]; CTX-M-producing bacteria,45%
same,"resistance identified, number of isolates",[1]; bacteria lacking CTX-Ms,7
same,"resistance identified, percent of isolates",[1]; bacteria lacking CTX-Ms,7%
NCC[C@H](O)C(=O)N[C@@H]1C[C@H](N)[C@@H](O[C@H]2O[C@H](CN)[C@@H](O)[C@H](O)[C@H]2O)[C@H](O)[C@H]1O[C@H]1O[C@H](CO)[C@@H](O)[C@H](N)[C@H]1O [amikacin],"resistance identified, number of isolates",[1]; CTX-M-producing bacteria,one
NC[C@H]1O[C@H](O[C@H]2[C@H](O)[C@@H](O[C@H]3O[C@H](CO)[C@@H](O)[C@H](N)[C@H]3O)[C@H](N)C[C@@H]2N)[C@H](N)C[C@@H]1O [tobramycin],"resistance identified, number of isolates",[1]; CTX-M-producing bacteria,5
same,"resistance identified, percent of isolates",[1]; CTX-M-producing bacteria,45%
same,"resistance identified, number of isolates",[1]; bacteria lacking CTX-Ms,2
same,"resistance identified, percent of isolates",[1]; bacteria lacking CTX-Ms,2%
trimethoprim/sulfamethoxazole,"resistance identified, number of isolates",[1]; CTX-M-producing bacteria,8
same,"resistance identified, percent of isolates",[1]; CTX-M-producing bacteria,73%
same,"resistance identified, number of isolates",[1]; bacteria lacking CTX-Ms,21
same,"resistance identified, percent of isolates",[1]; bacteria lacking CTX-Ms,22%
O=C1CN(/N=C/c2ccc([N+](=O)[O-])o2)C(=O)N1 [nitrofurantoin],"resistance identified, number of isolates",[1]; CTX-M-producing bacteria,1
same,"resistance identified, percent of isolates",[1]; CTX-M-producing bacteria,10%
same,"resistance identified, number of isolates",[1]; bacteria lacking CTX-Ms,2
same,"resistance identified, percent of isolates",[1]; bacteria lacking CTX-Ms,2%
piperacillin/tazobactam,resistance in the isolates (in words),[1],not detected
C[C@H]1COc2c(N3CCN(C)CC3)c(F)cc3c(=O)c(C(=O)O)cn1c23 [levofloxacin],"resistance identified, number of isolates",[1]; CTX-M-producing bacteria,8
same,"resistance identified, percent of isolates",[1]; CTX-M-producing bacteria,73%
same,"resistance identified, number of isolates",[1]; bacteria lacking CTX-Ms,13
same,"resistance identified, percent of isolates",[1]; bacteria lacking CTX-Ms,14%
